Each structure is given as a SMILES string. Entries after “also recorded” stand apart in the source; their conditions may differ. Read-outs that look alike come from different tables or passages of the source.

Data set [1] can be described thus: Brain penetration after oral administration to mice. It is filed as in vivo. The settings on record: mouse, 10 mg/kg. As for the experimental part:
(§1) Compound 1 is a synthetic, orally bioavailable, novel small molecule microtubule polymerization inhibitor with very high CNS penetration. The efficacy of compound 1 as a novel anti-cancer agent is tested directly using mouse model of malignant glioma. Compound 1 is an orally administered tubulin polymerization inhibitor that binds to a novel site on heterodimeric tubulin, and to a novel conformation of the dimer. Compound 1 can inhibit Src signaling in tumors. Compound 1 has been evaluated in various brain tumor cell lines. […] When administered orally to mice at a dose of 10 mg/kg, the ratio of drug levels in the brain compared to plasma levels was 0.76, indicating excellent blood brain barrier penetration.
(§2) Compound 1 was evaluated in various human and mouse brain tumor cells derived from glioblastoma multiforme, astrocytoma and medulloblastoma. See, e.g., US2011/0281872. […] When administered to mice compound 1 penetrated the brain by 76%, thereby successfully addressing the first major challenge in brain cancer drug discovery. Drugs which are used to treat brain tumors often penetrate only 20% or less.

For data set [2], the system named is GL261 glioma. Nature of the data set: Orthotropic GL261 glioma model in immune-competent, syngeneic C57BL/6 mice. The class given is in vivo. As for the experimental part: (§3) Compound 1 was also evaluated in the orthotropic GL261 glioma model in immune-competent, syngeneic C57BL/6 mice. Mice implanted intracerebrally with 1×1^05 GL261 cells treated with vehicle alone (saline) have a median survival time (MeST) of 21 days (range 18-28). Mice treated by oral compound 1 (30 mg/kg, b.i.d.) have a MeST of 30.5 days ranging 23-32 days. In contrast, when compound 1 is given orally at (30 mg/kg, s.i.d.) the MeST increases to over 120 days, with more than 60% of the treatment group still alive 12 months later (p<0.0001). […] Further experiments were performed using a SCID version of C57BL/6 mice (B6.CB17-Prkd^cscid/SzJ), a mouse model of B6 background, but is immune-compromised.
When given as a single dose per day (s.i.d.) compound 1 led to complete tumor regression in up to 60% of treated mice without further progression. […] This magnitude of anti-tumor effect was not observed in SCID models leading to the possibility that compound 1 may be involved in an anti-tumor immune response.
When given single dose per day (s.i.d.) compound 1 led to complete tumor regression in up to 60% of treated mice without further progression.

Data set [3] has as its system survivin. The data set can be described thus: Additional molecular studies on survivin.
Data set [4] concerns human colon cancer cells (HT29). Nature of the data set: Src substrate phosphorylation in HT29 cells. The class given is cell-based. The settings on record: in good correlation with growth inhibitory effects. From the text:
(§4) Compounds of the invention may be Src signaling inhibitors that bind in the Src peptide substrate site. The activity of various compounds of the invention has been studied in c-Src (527F, constitutively active and transforming) transformed NIH3T3 cells and in human colon cancer cells (HT29).

Data set [5] has as its system GL261 intracerebral tumors. Nature of the data set: GL261 intracerebral tumors in immune-compromised SCID C57BL/6 mice. It is filed as in vivo, SCID version of C57BL/6 mice (B6.CB17-Prkd^cscid/SzJ). As for the experimental part: as §3
Data set [6] deals with aggressive brain tumors. The data set can be described thus: Mice with aggressive brain tumors (mouse model of malignant glioma). It is filed as in vivo. As for the experimental part: as §1, §2
Data set [7] deals with c-Src (527F, constitutively active and transforming) transformed NIH3T3 cells. The data set can be described thus: Src substrate phosphorylation in c-Src transformed NIH3T3 cells. It is filed as cell-based. The settings on record: c-Src (527F) transformed NIH3T3 cells; in good correlation with growth inhibitory effects.
Text: as §4

Data set [8] has as its system various brain tumor cell lines (glioblastoma multiforme, astrocytoma, medulloblastoma). Nature of the data set: Proliferation of brain tumor cell lines. It is filed as cell-based, human and mouse. As for the experimental part:
as §1, §2

Setting [9] is: oral 30 mg/kg, b.i.d., C57BL/6, intracerebral GL261.
Setting [10] is: immune-compromised SCID mice bearing GL261 intracerebral tumors.
Setting [11] is: mice with aggressive brain tumors.

As to `O=C(Cc1ccc(-c2ccc(N3CCOCC3)cc2)cn1)NCc1cccc(F)c1` [compound 1, N-(3-fluorobenzyl)-2-(5-(4-morpholinophenyl)pyridin-2-yl)acetamide], the Kp amounted to 0.76 in data set [1] (brain (relative to plasma), mice, read-out: ratio of drug levels in the brain compared to plasma levels) and 0.76 in data set [1] (brain, administered to mice, read-out: brain penetration). For the same compound, in data set [2] ("cured" / long term survivor immune-competent C57BL/6 mice), the “second GL261 tumor implant challenge” value is “rejected a second GL261 tumor implant challenge; also recorded: rejection of a second tumor”. In addition, the “median survival time (MeST)” value is 30.5 days in data set [2] (setting [9]); “over 120 days” in data set [2] (oral 30 mg/kg, s.i.d., C57BL/6, intracerebral GL261); 40 days in data set [5] (setting [10]). The figures for the survival time range in data set [2] (setting [9]) and in data set [5] (setting [10]) were 23 to 32 days and 29 to 75 days, respectively. Besides, the “treatment group still alive 12 months later” value in data set [2] (oral 30 mg/kg, s.i.d., p<0.0001) was “more than 60%”. Moreover, the “growth rate of intracerebral GL261 glioma” value in data set [2] (relative to control groups, five independent studies) was “slows the growth rate”. In addition, the “treated mice with complete tumor regression without further progression” value in data set [2] (single dose per day (s.i.d.)) is on record as “up to 60%”. The “expression and localization of intracellular survivin” value in data set [3] is “increased expression and altered the localization of intracellular survivin”. Moreover, the “phosphorylation level of known Src protein substrates” value in data set [4] and in data set [7] was “reduce the phosphorylation level of known Src protein substrates in a dose-dependent fashion” throughout. The “tumor outcome after drug was discontinued (observed by MRI)” value in data set [5] (SCID mice surviving greater than 45 days) was “all proceeded to develop lethal GL261 gliomas”. In addition, the “drug treated mice with complete tumor regression and no reoccurrence within normal full life span” value in data set [6] (setting [11]) is listed as “up to 60%”. Moreover, in data set [6] (setting [11]), the “rate of tumor growth” value is “very significantly slows the rate of tumor growth”. In addition, in data set [6] (versus placebo or Temodar treated mice), the brain edema result is “much less brain edema”. For the same compound, the “growth of brain tumor cells” value in data set [8] (human and mouse brain tumor cells derived from glioblastoma multiforme, astrocytoma and medulloblastoma) is reported as “potently inhibited the growth”. In data set [8] (various brain tumor cell lines, in all cases, read-out: GI50 (inhibition of proliferation)), the GI50 is under 55 nM.

Consider `Cn1nnc2c(C(N)=O)ncn2c1=O` [Temodar, Temozolamide, reference compound], for which, in data set [6] (setting [11]), the “rate of tumor growth” value is recorded as “only slows the growth rate of the tumors”. In addition, the complete tumor regression result in data set [6] (mice with aggressive brain tumors, comparison drug) is given as “does not cause complete tumor regression”.

For the origin of these results see patent US10106505B2, “Composition and methods for modulating a kinase cascade” (Athenex, Inc., priority 2012, dated 2018).
